Here are results for 16 compounds from ChEMBL document CHEMBL1147660, “Discovery of SCH446211 (SCH6): a new ketoamide inhibitor of the HCV NS3 serine protease and HCV subgenomic RNA replication” (J Med Chem, 2006).

Numbered stars: 1 amine (or outer) side, 2 acyl side, 3 side chain; on linkers, the order of the positions; unused ones are H or OH. Square brackets hold non-standard residues; d marks the D form. Peptide text beside a SMILES is read from it. * marks the point of attachment. Pro(3R,4S-CMe2) = CC1(C)[C@@H]2[C@@H](C(=O)O)NC[C@@H]21; Pro(4,4-S(CH2)3S) = O=C(O)[C@@H]1CC2(CN1)SCCCS2; Pro(4,4-SCH2CH2S) = O=C(O)[C@@H]1CC2(CN1)SCCS2; X4 = O=C(C(=O)[*:2])C(CCC(F)(F)F)N[*:1]; Pro(4,4-Me2) = CC1(C)CN[C@H](C(=O)O)C1; Pro(4R-Me) = C[C@H]1CN[C@H](C(=O)O)C1; Isobutyloxycarbonyl = CC(C)COC(=O)*; X1 = O=C(C(=O)[*:2])C(CC1CC1)N[*:1]; X3 = CCCCC(N[*:1])C(=O)C(=O)[*:2]; Hyp = O=C(O)[C@@H]1C[C@@H](O)CN1; X2 = CCCC(N[*:1])C(=O)C(=O)[*:2]; Chg = N[C@H](C(=O)O)C1CCCCC1; Phg = N[C@H](C(=O)O)c1ccccc1; Tle = CC(C)(C)[C@H](N)C(=O)O; Boc = CC(C)(C)OC(=O)*; tBu = CC(C)(C)*

The target of series [1] is NS3 (Hepatitis C virus, UniProt A3EZJ3). Kind of series: Binding affinity to HCV NS3 serine protease. Set-up: species or system Hepacivirus hominis.
Chain of NS3 (A3EZJ3 whole entry): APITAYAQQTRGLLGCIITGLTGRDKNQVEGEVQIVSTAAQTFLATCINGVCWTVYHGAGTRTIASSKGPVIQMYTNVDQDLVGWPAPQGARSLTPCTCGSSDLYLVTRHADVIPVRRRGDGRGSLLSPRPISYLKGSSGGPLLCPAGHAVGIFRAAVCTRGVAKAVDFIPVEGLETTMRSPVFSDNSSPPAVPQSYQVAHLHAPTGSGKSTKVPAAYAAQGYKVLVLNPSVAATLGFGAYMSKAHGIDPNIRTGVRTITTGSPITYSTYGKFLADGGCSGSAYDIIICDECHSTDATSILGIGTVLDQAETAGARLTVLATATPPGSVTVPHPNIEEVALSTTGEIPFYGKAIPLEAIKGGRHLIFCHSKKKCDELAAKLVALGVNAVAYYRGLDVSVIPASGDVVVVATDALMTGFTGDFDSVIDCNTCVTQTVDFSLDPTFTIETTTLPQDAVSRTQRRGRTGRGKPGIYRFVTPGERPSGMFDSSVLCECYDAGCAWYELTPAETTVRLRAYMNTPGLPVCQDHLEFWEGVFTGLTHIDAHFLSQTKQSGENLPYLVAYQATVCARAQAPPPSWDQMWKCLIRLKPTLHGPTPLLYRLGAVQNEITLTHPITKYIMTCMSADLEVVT
The subject of series [2] is Hepatitis C virus. Kind of series: Inhibition of HCV replicon. The series is classed as functional, Hepacivirus hominis. For orientation: In antiviral work, replicon cells carry a viral genome segment that copies itself.
Series [3] in a line: Selectivity for HCV NS3 serine protease over HNE.
A short description of series [4]: AUC in rat at 10 mg/kg, po. The series is classed as ADME, organism-based. Further details: dose 10 mg/kg, route oral. The following applies: plasma.
Series [5] is described as follows: Cmax in rat at 10 mg/kg, po. The following applies: in vivo. The series is classed as ADME, organism-based. Further details: dose 10 mg/kg, route oral.
Series [6] is described as follows: AUC in rat at 5 mg/kg, iv. In kind it is ADME, organism-based. The following applies: plasma. Set-up: dose 5 mg/kg, route intravenous.
Series [7] can be described thus: Half life in rat at 5 mg/kg, iv. In kind it is ADME, organism-based. Further details: dose 5 mg/kg, route intravenous. The following applies: in vivo.
A short description of series [8]: Clearance in rat. The following applies: in vivo. The series is classed as ADME, organism-based.
Series [9] in a line: Oral bioavailability in rat at 10 mg/kg, po. The series is classed as ADME, organism-based. The following applies: in vivo.
A short description of series [10]: AUC in rat at 10 mg/kg, sc. The following applies: plasma. Set-up: dose 10 mg/kg, route subcutaneous. The series is classed as ADME, organism-based.
A short description of series [11]: Cmax in rat at 10 mg/kg, sc. The series is classed as ADME, organism-based. Further details: dose 10 mg/kg, route subcutaneous. The following applies: in vivo.
Series [12] is described as follows: Oral bioavailability in rat at 10 mg/kg, sc. The series is classed as ADME, organism-based. The following applies: in vivo, subcutaneous.
A short description of series [13]: AUC in monkey at 3 mg/kg, po. The series is classed as ADME, organism-based, Macaca mulatta. The following applies: rhesus monkey, plasma. Set-up: dose 3 mg/kg, route oral.
The nature of series [14]: Cmax in monkey at 3 mg/kg, po. In kind it is ADME, organism-based, Macaca mulatta. Set-up: dose 3 mg/kg, route oral. The following applies: rhesus monkey, in vivo.
Series [15] is described as follows: AUC in monkey at 1 mg/kg, iv. The series is classed as ADME, organism-based, Macaca mulatta. Further details: dose 1 mg/kg, route intravenous. The following applies: rhesus monkey, plasma.
The nature of series [16]: Half life in monkey at 1 mg/kg, iv. In kind it is ADME, organism-based, Macaca mulatta. Further details: dose 1 mg/kg, route intravenous. The following applies: rhesus monkey, in vivo.
Series [17] can be described thus: Clearance in monkey. In kind it is ADME, organism-based, Macaca mulatta. The following applies: rhesus monkey, in vivo.
Series [18] in a line: Oral bioavailability in monkey at 3 mg/kg, po. The following applies: rhesus monkey, in vivo. The series is classed as ADME, organism-based, Macaca mulatta.
Series [19] can be described thus: AUC in monkey at 1 mg/kg, sc. The following applies: rhesus monkey, plasma. The series is classed as ADME, organism-based, Macaca mulatta. Further details: dose 1 mg/kg, route subcutaneous.
The nature of series [20]: Cmax in monkey at 1 mg/kg, sc. The following applies: rhesus monkey, in vivo. The series is classed as ADME, organism-based, Macaca mulatta. Set-up: dose 1 mg/kg, route subcutaneous.
Series [21] is described as follows: Oral bioavailability in monkey at 1 mg/kg, sc. In kind it is ADME, organism-based, Macaca mulatta. The following applies: rhesus monkey, in vivo, subcutaneous.

As a reminder, the Ki is a dissociation constant, usually derived from enzyme kinetics or from competition with a known ligand. In general, IC90 refers to the concentration at which the effect reaches the 90% level. `CCCC(NC(=O)[C@@H]1[C@H]2CC(C)(C)C[C@H]2CN1C(=O)[C@@H](NC(=O)OCC(C)C)C(C)(C)C)C(=O)C(=O)NCC(=O)N[C@H](C(=O)N(C)C)c1ccccc1` (some centres undefined) came in with a Ki in series [1] of 15 nM. In series [2], the 90% effect concentration (IC90) came to 900 nM.
`CCCC(NC(=O)[C@@H]1CC2(CN1C(=O)[C@@H](NC(=O)OCC(C)C)C1CCCCC1)SCCCS2)C(=O)C(=O)NCC(=O)N[C@H](C(=O)N(C)C)c1ccccc1` (some centres undefined) (Isobutyloxycarbonyl-[Chg][Pro(4,4-S(CH2)3S)][X2]G[Phg]-NMe2) gave an inhibitory constant (Ki) in series [1] of 28 nM.
The same measure, in the same setting: the value for `CCCC(NC(=O)[C@@H]1C[C@@H](SC(C)(C)C)CN1C(=O)[C@@H](NC(=O)OCC(C)C)C(C)(C)C)C(=O)C(=O)NCC(=O)N[C@H](C(=O)N(C)C)c1ccccc1` (some centres undefined) was 120 nM; that for `CCCC(NC(=O)[C@@H]1CC(C)(C)CN1C(=O)[C@@H](NC(=O)OCC(C)C)C(C)(C)C)C(=O)C(=O)NCC(=O)N[C@H](C(=O)N(C)C)c1ccccc1` (some centres undefined) (Isobutyloxycarbonyl-[Tle][Pro(4,4-Me2)][X2]G[Phg]-NMe2) was 36 nM.
On to `CCCCC(NC(=O)[C@@H]1[C@@H]2[C@H](CN1C(=O)[C@@H](NC(=O)OC(C)(C)C)C(C)(C)C)C2(C)C)C(=O)C(=O)NCC(=O)N[C@H](C(=O)N(C)C)c1ccccc1` (stereo partly drawn) (Boc-[Tle][Pro(3R,4S-CMe2)][X3]G[Phg]-NMe2), for which the Ki in series [1] was 10 nM. It took 400 nM to reach the 90% level in series [2] (IC90). Further, the Selectivity ratio in [3] amounted to 964.
The corresponding values for `CCCC(NC(=O)[C@@H]1[C@@H]2[C@H](CN1C(=O)[C@@H](NC(=O)OCC(C)C)C1CCCCC1)C2(C)C)C(=O)C(=O)NCC(=O)N[C@H](C(=O)N(C)C)c1ccccc1` (stereo partly drawn) (Isobutyloxycarbonyl-[Chg][Pro(3R,4S-CMe2)][X2]G[Phg]-NMe2) are 10 nM, 200 nM and 4.
The corresponding values for `CCCC(NC(=O)[C@@H]1[C@@H]2[C@H](CN1C(=O)[C@@H](NC(=O)OCC(C)C)C(C)(C)C)C2(C)C)C(=O)C(=O)NCC(=O)N[C@H](C(=O)N(C)C)c1ccccc1` (stereo partly drawn) (Isobutyloxycarbonyl-[Tle][Pro(3R,4S-CMe2)][X2]G[Phg]-NMe2) are 16 nM, 350 nM and 81.
In turn, `CCCC(NC(=O)[C@@H]1[C@H]2CC(C)(C)O[C@H]2CN1C(=O)[C@@H](NC(=O)OCC(C)C)C(C)(C)C)C(=O)C(=O)NCC(=O)N[C@H](C(=O)N(C)C)c1ccccc1` (some centres undefined) displayed a Ki in series [1] of 10 nM. For the same compound, it took 1800 nM to reach the 90% level in [2] (IC90).
Turning to `CCCC(NC(=O)[C@@H]1CC2(CN1C(=O)[C@@H](NC(=O)OCC(C)C)C1CCCCC1)SCCS2)C(=O)C(=O)NCC(=O)N[C@H](C(=O)N(C)C)c1ccccc1` (some centres undefined) (Isobutyloxycarbonyl-[Chg][Pro(4,4-SCH2CH2S)][X2]G[Phg]-NMe2), the inhibitory constant (Ki) in series [1] worked out at 26 nM.
Still for that read-out and setting: the value for `CCCC(NC(=O)[C@@H]1C[C@@H](C)CN1C(=O)[C@@H](NC(=O)OCC(C)C)C(C)(C)C)C(=O)C(=O)NCC(=O)N[C@H](C(=O)N(C)C)c1ccccc1` (stereo partly drawn) (Isobutyloxycarbonyl-[Tle][Pro(4R-Me)][X2]G[Phg]-NMe2) was 140 nM.
`CCCC(NC(=O)[C@@H]1[C@@H]2[C@H](CN1C(=O)[C@@H](NC(=O)OC(C)(C)C)C(C)(C)C)C2(C)C)C(=O)C(=O)NCC(=O)N[C@H](C(=O)N(C)C)c1ccccc1` (stereo partly drawn) (Boc-[Tle][Pro(3R,4S-CMe2)][X2]G[Phg]-NMe2) showed an inhibitory constant (Ki) in series [1] of 14 nM. This compound came in with a concentration for an effect of 90% (IC90) in series [2] of 250 nM. The Selectivity ratio in series [3] was determined as 147.
Take `CCCC(NC(=O)[C@@H]1CC2(CCCC2)CN1C(=O)[C@@H](NC(=O)OCC(C)C)C1CCCCC1)C(=O)C(=O)NCC(=O)N[C@H](C(=O)N(C)C)c1ccccc1` (some centres undefined): the Ki in [1] stood at 26 nM.
Still for that read-out and setting: the value for `CCCC(NC(=O)[C@@H]1CCCN1C(=O)[C@@H](NC(=O)OCC(C)C)C1CCCCC1)C(=O)C(=O)NCC(=O)N[C@H](C(=O)N(C)C)c1ccccc1` (some centres undefined) (Isobutyloxycarbonyl-[Chg]P[X2]G[Phg]-NMe2) was 10000 nM.
By AUC is commonly meant the area under the concentration-time curve, a measure of exposure. Broadly, the Cmax is the maximum level reached in the sampled fluid or tissue. What is called half-life is how long it takes for the measured level to halve. Usually clearance stands for a measure of how efficiently the substance is removed, as volume per time. One may read the bioavailability as dose-corrected exposure relative to a reference, in per cent. Take `CN(C)C(=O)[C@@H](NC(=O)CNC(=O)C(=O)C(CC1CC1)NC(=O)[C@@H]1[C@@H]2[C@H](CN1C(=O)[C@@H](NC(=O)OC(C)(C)C)C(C)(C)C)C2(C)C)c1ccccc1` (stereo partly drawn) (Boc-[Tle][Pro(3R,4S-CMe2)][X1]G[Phg]-NMe2): the area under the curve (AUC) came to 0.35 µM·h in [4]; 4.7 µM·h in series [6]; 19.5 µM·h in series [10]; 0.03 µM·h in series [13]; 3.4 µM·h in series [15]; 5.6 µM·h in [19]. Further, the Cmax in series [5] was 120 nM; in series [11], 4370 nM; in series [14], 30 nM; in series [20] it was 1600 nM. The half-life in [7] is 5.2 h; in [16], 5.3 h. Besides, the clearance in series [8] turned out to be 24 mL/min/kg; in series [17], 6.9 mL/min/kg. Further, the bioavailability was found to be 4% in series [9], 100% in series [12], 1% in series [18] and 100% in series [21]. Moreover, the affinity in series [1] corresponds to a Ki of 3.8 nM. This compound had an IC90 in series [2] of 100 nM. In addition, the Selectivity ratio in series [3] was 1000.
In the case of `CCCC(NC(=O)[C@@H]1C[C@@H](OC(C)(C)C)CN1C(=O)[C@@H](NC(=O)OCC(C)C)C(C)(C)C)C(=O)C(=O)NCC(=O)N[C@H](C(=O)N(C)C)c1ccccc1` (some centres undefined) (Isobutyloxycarbonyl-[Tle][Hyp](tBu)[X2]G[Phg]-NMe2), in series [1], the affinity corresponds to a Ki of 19 nM. This compound also registered a 90% effect concentration (IC90) in [2] of 2000 nM.
As for `CN(C)C(=O)[C@@H](NC(=O)CNC(=O)C(=O)C(CCC(F)(F)F)NC(=O)[C@@H]1[C@@H]2[C@H](CN1C(=O)[C@@H](NC(=O)OC(C)(C)C)C(C)(C)C)C2(C)C)c1ccccc1` (stereo partly drawn) (Boc-[Tle][Pro(3R,4S-CMe2)][X4]G[Phg]-NMe2), the Ki in series [1] stood at 2 nM. The IC90 in series [2] turned out to be 400 nM. Also, the Selectivity ratio in [3] was 4600.
